Results reported in patent publication US20250136577A1, “HETEROCYCLIC DERIVATIVES AS MALT1 INHIBITORS” (C4X Discovery Limited, priority 2022, published 2025).

Key:
FL hMALT1 enzyme = FL hMALT1 enzyme (Homo sapiens (Human), UniProt Q9UDY8); test: MALT1 Protease Assay 2 (Assay 2), higher sensitivity, cleavage of fluorogenic tetrapeptide substrate; assay type: biochemical; details: FL hMALT1 1-10 nM, Ac-LVSR-AMC 100 μM, 0.7 M sodium citrate, 30 min preincubation, 60 min read
Method: MALT1 Protease Assay 2 (Assay 2)
(§1) MALT1 protease activity was assessed in vitro by measuring the cleavage of a fluorogenic tetrapeptide substrate.
For a higher sensitivity assay, commercially available FL hMALT1 enzyme (Abcam, 1-10 nM) was incubated with substrate (Ac-LVSR-AMC, 100 μM) in reaction buffer comprising 50 mM HEPES (pH7.0), 25 mM KCl, 0.1% (v/v) CHAPS, 1 mM TCEP and 0.7 M sodium citrate.
(§2) Test compounds dissolved in DMSO were dispensed into assay plates (384-well, black, shallow ProxiPlates). 7 μl enzyme solution was added and incubated at room temperature for 30 minutes to allow compound binding to occur. 2 μl substrate solution was then added and the fluorescence (excitation 360 nm, emission 460 nm) read every 15 minutes using a suitable plate reader. Final assay DMSO concentration was 1%. Linearity over 60 minutes was confirmed, and assay signal was calculated by subtracting raw counts at time 0 from those at 60 minutes. % inhibition was calculated for each well, using no enzyme for 100% inhibition controls and no compound for 0% inhibition controls. IC50 values were calculated using GraphPad Prism using a 4-parameter non-linear regression curve fit.

[1] = molecular target: MALT1-GS-Ub (6-His-hMALT-1 residues 339-715 fused to ubiquitin) (Homo sapiens (Human), UniProt Q9UDY8); test: MALT1 Protease Assay 1 (Assay 1), cleavage of fluorogenic tetrapeptide substrate; assay type: biochemical; details: MALT1-GS-Ub 300-600 nM, Ac-LVSR-AMC 100 μM, 30 min preincubation, 60 min read
MALT1-GS-Ub (6-His-hMALT-1 residues 339-715 fused to ubiquitin), sequence (Q9UDY8 other isoform, or with tags, fused parts or gaps): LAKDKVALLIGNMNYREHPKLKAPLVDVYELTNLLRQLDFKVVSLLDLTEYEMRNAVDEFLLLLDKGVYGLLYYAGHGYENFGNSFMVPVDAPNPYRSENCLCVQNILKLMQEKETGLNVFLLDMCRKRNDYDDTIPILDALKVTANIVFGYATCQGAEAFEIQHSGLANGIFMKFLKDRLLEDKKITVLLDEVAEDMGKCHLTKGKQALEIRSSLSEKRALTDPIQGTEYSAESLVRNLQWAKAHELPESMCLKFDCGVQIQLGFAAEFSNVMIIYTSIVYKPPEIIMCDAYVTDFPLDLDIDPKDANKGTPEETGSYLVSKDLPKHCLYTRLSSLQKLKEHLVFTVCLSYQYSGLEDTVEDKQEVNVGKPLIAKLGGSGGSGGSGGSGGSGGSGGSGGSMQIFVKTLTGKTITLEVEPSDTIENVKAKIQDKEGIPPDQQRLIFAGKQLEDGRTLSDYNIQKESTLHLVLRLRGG
Method: MALT1 Protease Assay 1 (Assay 1)
as §1
A protein (MALT1-GS-Ub) comprising 6-His-hMALT-1 (residues 339-715), fused to ubiquitin with an 8× GGS linker, was expressed in E. coli, and purified using chitin resin to remove contaminants followed by affinity chromatography purification and size-exclusion chromatography, according to standard protocols.
Briefly, MALT1-GS-Ub (300-600 nM) was incubated with substrate (Ac-LVSR-AMC, 100 μM) in reaction buffer comprising 50 mM HEPES (pH7.0), 25 mM KCl, 0.1% (v/v) CHAPS and 1 mM TCEP.
as §2

FL hMALT1 enzyme, sequence (Q9UDY8 whole entry): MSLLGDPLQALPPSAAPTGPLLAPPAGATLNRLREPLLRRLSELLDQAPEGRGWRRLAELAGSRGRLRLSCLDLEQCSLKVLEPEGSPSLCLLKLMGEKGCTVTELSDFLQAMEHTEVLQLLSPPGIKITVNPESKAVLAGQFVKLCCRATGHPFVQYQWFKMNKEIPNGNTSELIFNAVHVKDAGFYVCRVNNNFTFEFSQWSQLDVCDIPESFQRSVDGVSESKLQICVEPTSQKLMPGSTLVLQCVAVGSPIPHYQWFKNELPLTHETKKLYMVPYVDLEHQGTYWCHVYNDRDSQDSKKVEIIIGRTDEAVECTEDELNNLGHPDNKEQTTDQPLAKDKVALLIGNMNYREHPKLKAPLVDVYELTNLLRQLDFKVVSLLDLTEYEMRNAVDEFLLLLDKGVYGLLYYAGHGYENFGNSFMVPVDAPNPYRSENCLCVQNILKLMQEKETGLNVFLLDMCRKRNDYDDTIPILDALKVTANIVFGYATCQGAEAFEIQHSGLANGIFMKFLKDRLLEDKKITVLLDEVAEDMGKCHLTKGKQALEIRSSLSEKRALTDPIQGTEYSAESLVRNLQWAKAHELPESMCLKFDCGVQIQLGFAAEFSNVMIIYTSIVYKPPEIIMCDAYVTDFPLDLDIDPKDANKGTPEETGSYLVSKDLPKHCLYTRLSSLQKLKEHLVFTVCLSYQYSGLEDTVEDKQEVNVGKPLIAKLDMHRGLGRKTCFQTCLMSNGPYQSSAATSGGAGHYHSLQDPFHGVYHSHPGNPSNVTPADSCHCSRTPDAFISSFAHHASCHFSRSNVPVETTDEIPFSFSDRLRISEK

| Structure (SMILES) | IC50 (FL hMALT1 enzyme) [nM] | IC50 [1] [µM] |
| --- | --- | --- |
| O=C(Nc1cnc(-n2nccn2)c(C(F)(F)F)c1)N1CCCc2c(-c3ncco3)cccc21 [Example 9, N-(6-(2H-1,2,3-Triazol-2-yl)-5-(trifluoromethyl)pyridin-3-yl)-5-(oxazol-2-yl)-3,4-dihydroquinoline-1 (2H)-carboxamide] | 2000 | 4.6 |
| O=C(Nc1cnc(-n2nccn2)c(C(F)(F)F)c1)N1CCOc2c(Br)cccc21 [Example 4, N-(6-(2H-1,2,3-Triazol-2-yl)-5-(trifluoromethyl)pyridin-3-yl)-8-bromo-2,3-dihydro-4H-benzo[b][1,4]oxazine-4-carboxamide] | 400 | 2.8 |
| O=C(Nc1cnc(-n2nccn2)c(Cl)c1)N1CCN(C2CCOCC2)c2c(Br)cncc21 [Example 33, 8-Bromo-N-(5-chloro-6-(2H-1,2,3-triazol-2-yl)pyridin-3-yl)-1-(tetrahydro-2H-pyran-4-yl)-2,3-dihydropyrido[3,4-b]pyrazine-4 (1H)-carboxamide] | 1500 | 7.6 |
| O=C(Nc1cnc(-n2nccn2)c(Cl)c1)N1CC2CCCCN2c2c(Br)cncc21 (stereo not shown) [Example 28, 1-Bromo-N-(5-chloro-6-(2H-1,2,3-triazol-2-yl)pyridin-3-yl)-6,6a,7,8,9,10-hexahydro-5H-dipyrido[1,2-a: 3′,4′-e] pyrazine-5-carboxamide] | 1100 | 7.3 |
| Cc1ncc2c(c1C#N)OC(C(F)(F)F)CN2C(=O)Nc1cnc(-n2nccn2)c(Cl)c1 (single isomer, unassigned) [Example 52, N-(5-Chloro-6-(2H-1,2,3-triazol-2-yl)pyridin-3-yl)-8-cyano-7-methyl-2-(trifluoromethyl)-2,3-dihydro-4H-pyrido[4,3-b][1,4]oxazine-4-carboxamide] | 7600 |  |
| CC1CN(C(=O)Nc2cnc(-n3nccn3)c(Cl)c2)c2cncc(Br)c2O1 (single isomer, unassigned) [Example 44, 8-Bromo-N-(5-chloro-6-(2H-1,2,3-triazol-2-yl)pyridin-3-yl)-2-methyl-2,3-dihydro-4H-pyrido[4,3-b][1,4]oxazine-4-carboxamide] | 330 |  |
| O=C(Nc1cnc(-n2nccn2)c(Cl)c1)N1CCCc2c(Br)cccc21 [Example 1, 5-Bromo-N-(5-chloro-6-(2H-1,2,3-triazol-2-yl)pyridin-3-yl)-3,4-dihydroquinoline-1 (2H)-carboxamide] |  | 4.5 |
| N#Cc1cncc2c1OC(C(F)(F)F)CN2C(=O)Nc1cnc(-n2nccn2)c(Cl)c1 (single isomer, unassigned) [Example 54, N-(5-Chloro-6-(2H-1,2,3-triazol-2-yl)pyridin-3-yl)-8-cyano-2-(trifluoromethyl)-2,3-dihydro-4H-pyrido[4,3-b][1,4]oxazine-4-carboxamide] | 8200 |  |
| O=C(Nc1cnc(-n2nccn2)c(C(F)(F)F)c1)N1CCCc2c(Br)cccc21 [Example 2, N-(6-(2H-1,2,3-Triazol-2-yl)-5-(trifluoromethyl)pyridin-3-yl)-5-bromo-3,4-dihydroquinoline-1 (2H)-carboxamide] |  | 3.2 |
| COc1cncc2c1OC(C(F)(F)F)CN2C(=O)Nc1cnc(-n2nccn2)c(Cl)c1 (single isomer, unassigned) [Example 56, N-(5-Chloro-6-(2H-1,2,3-triazol-2-yl)pyridin-3-yl)-8-methoxy-2-(trifluoromethyl)-2,3-dihydro-4H-pyrido[4,3-b][1,4]oxazine-4-carboxamide] | 5100 |  |
| O=C(Nc1cnc(-n2nccn2)c(Cl)c1)N1CC(C2CC2)Oc2c(Br)cncc21 (single isomer, unassigned) [Example 51, 8-Bromo-N-(5-chloro-6-(2H-1,2,3-triazol-2-yl)pyridin-3-yl)-2-cyclopropyl-2,3-dihydro-4H-pyrido[4,3-b][1,4]oxazine-4-carboxamide] | 250 |  |
| Cc1ncc2c(c1Br)OC(C(F)(F)F)CN2C(=O)Nc1cnc(-n2nccn2)c(Cl)c1 (single isomer, unassigned) [Example 42, 8-Bromo-N-(5-chloro-6-(2H-1,2,3-triazol-2-yl)pyridin-3-yl)-7-methyl-2-(trifluoromethyl)-2,3-dihydro-4H-pyrido[4,3-b][1,4]oxazine-4-carboxamide] | 3400 |  |
| O=C(Nc1cnc(-n2nccn2)c(Cl)c1)N1CC(C2CC2)Oc2c(Br)cncc21 (single isomer, unassigned) [Example 50, 8-Bromo-N-(5-chloro-6-(2H-1,2,3-triazol-2-yl)pyridin-3-yl)-2-cyclopropyl-2,3-dihydro-4H-pyrido[4,3-b][1,4]oxazine-4-carboxamide] | 240 |  |
| CC1CN(C(=O)Nc2cnc(-n3nccn3)c(Cl)c2)c2cncc(Br)c2O1 (single isomer, unassigned) [Example 45, 8-Bromo-N-(5-chloro-6-(2H-1,2,3-triazol-2-yl)pyridin-3-yl)-2-methyl-2,3-dihydro-4H-pyrido[4,3-b][1,4]oxazine-4-carboxamide] | 200 |  |
| COc1cncc2c1OC(C(F)(F)F)CN2C(=O)Nc1cnc(-n2nccn2)c(Cl)c1 (single isomer, unassigned) [Example 57, N-(5-Chloro-6-(2H-1,2,3-triazol-2-yl)pyridin-3-yl)-8-methoxy-2-(trifluoromethyl)-2,3-dihydro-4H-pyrido[4,3-b][1,4]oxazine-4-carboxamide] | 170 |  |
| N#CC1Cc2c(Br)cncc2N(C(=O)Nc2cnc(-n3nccn3)c(Cl)c2)C1 (stereo not shown) [Example 58, 5-Bromo-N-(5-chloro-6-(2H-1,2,3-triazol-2-yl)pyridin-3-yl)-3-cyano-3,4-dihydro-1,7-naphthyridine-1 (2H)-carboxamide] | 1290 |  |

Now from value to compound, other results behind:

| IC50 (FL hMALT1 enzyme) [nM] | Structure (SMILES) | IC50 [1] [µM] |
| --- | --- | --- |
| 6500 | Cc1ncc2c(c1C#N)OC(C(F)(F)F)CN2C(=O)Nc1cnc(-n2nccn2)c(C#N)c1 (single isomer, unassigned) [Example 62, 8-Cyano-N-(5-cyano-6-(2H-1,2,3-triazol-2-yl)pyridin-3-yl)-7-methyl-2-(trifluoromethyl)-2,3-dihydro-4H-pyrido[4,3-b][1,4]oxazine-4-carboxamide] |  |
| 3820 | Cc1ncc2c(c1C#N)OC(C(F)(F)F)CN2C(=O)Nc1cnc(OC(F)F)c(Cl)c1 (single isomer, unassigned) [Example 60, N-(5-Chloro-6-(difluoromethoxy)pyridin-3-yl)-8-cyano-7-methyl-2-(trifluoromethyl)-2,3-dihydro-4H-pyrido[4,3-b][1,4]oxazine-4-carboxamide] |  |
| 17 | Cc1ncc2c(c1C#N)OC(C(F)(F)F)CN2C(=O)Nc1cnc(-n2nccn2)c(C(F)(F)F)c1 (single isomer, unassigned) [Example 65, N-(6-(2H-1,2,3-triazol-2-yl)-5-(trifluoromethyl)pyridin-3-yl)-8-cyano-7-methyl-2-(trifluoromethyl)-2,3-dihydro-4H-pyrido[4,3-b][1,4]oxazine-4-carboxamide] |  |
| 9100 | Cc1ncc2c(c1C#N)OC(C(F)(F)F)CN2C(=O)Nc1cnc(C(=O)N(C)C2CC2)c(C(F)F)c1 (single isomer, unassigned) [Example 66, 8-Cyano-N-(6-(cyclopropyl(methyl)carbamoyl)-5-(difluoromethyl)pyridin-3-yl)-7-methyl-2-(trifluoromethyl)-2,3-dihydro-4H-pyrido[4,3-b][1,4]oxazine-4-carboxamide] |  |
| 820 | Cc1ncc2c(c1C#N)OC(C(F)(F)F)CN2C(=O)Nc1ccnc(C(F)(F)F)c1 (stereo not shown) [Example 59, 8-Cyano-7-methyl-2-(trifluoromethyl)-N-(2-(trifluoromethyl)pyridin-4-yl)-2,3-dihydro-4H-pyrido[4,3-b][1,4]oxazine-4-carboxamide] |  |
| 104 | Cc1ncc2c(c1C#N)OC(C(F)(F)F)CN2C(=O)Nc1cnc(-n2nccn2)c(C#N)c1 (single isomer, unassigned) [Example 63, 8-Cyano-N-(5-cyano-6-(2H-1,2,3-triazol-2-yl)pyridin-3-yl)-7-methyl-2-(trifluoromethyl)-2,3-dihydro-4H-pyrido[4,3-b][1,4]oxazine-4-carboxamide] |  |
| 146 | Cc1ncc2c(c1C#N)OC(C(F)(F)F)CN2C(=O)Nc1cnc(C(=O)N(C)C2CC2)c(C(F)F)c1 (single isomer, unassigned) [Example 67, 8-Cyano-N-(6-(cyclopropyl(methyl)carbamoyl)-5-(difluoromethyl)pyridin-3-yl)-7-methyl-2-(trifluoromethyl)-2,3-dihydro-4H-pyrido[4,3-b][1,4]oxazine-4-carboxamide] |  |
| 2120 | Cc1ncc2c(c1C#N)OC(C(F)(F)F)CN2C(=O)Nc1cnc(-n2nccn2)c(C(F)(F)F)c1 (single isomer, unassigned) [Example 64, N-(6-(2H-1,2,3-triazol-2-yl)-5-(trifluoromethyl)pyridin-3-yl)-8-cyano-7-methyl-2-(trifluoromethyl)-2,3-dihydro-4H-pyrido[4,3-b][1,4]oxazine-4-carboxamide] |  |
